Source: patent US20080318070A1, “Water-Soluble Preflux and Usage of the Same” (SHIKOKU CHEMICALS CORPORATION, priority 2005, published 2008)

What was measured:
[1] = reported; cited from earlier work
[2] = Solubilization test of imidazole compounds; type: physicochemical; details: 0.20 g imidazole compound dissolved in 2.0 g carboxylic acid compound; ion-exchange water added until solution became clouded; larger = better solubilization
Experimental: Solubilization Test of Imidazole Compounds
After 0.20 g of 2-pheny-(3,4-dichlorophenyl)imidazole was dissolved in 2.0 g of the carboxylic acid compound for use in the invention, there was measured an amount of water required until the solution became clouded when ion-exchange water was added. The larger amount of water is judged to be more excellent in imidazole compound-solubilization performance of the carboxylic acid compound.
It is recognized that a chemical structure wherein an alkoxy group (R^1—O—) and a carboxymethyl group (—CH2COOH) or a carboxyethyl group (—C2H4COOH) is combined via an alkylene ether chain (—CH2CH(R^2)—O—) enhances the imidazole compound-solubilization performance.

| Compound | metabolism in the living body [1] | toxic effect [1] | Amount of water added [2] [mL] |
| --- | --- | --- | --- |
| COCC(=O)O [methoxyacetic acid] | difficult to metabolize in the living body | causing testicular atrophy or teratogenicity | – |
| CCCOCC(C)OCC(C)OCC(=O)O (centres unmarked) [Compound F, 2-[2-(2-propoxy-1-methylethoxy)-1-methylethoxy]acetic acid] | – | – | 3.0 |
| CCCOCC(=O)O [2-(n-Propoxy)acetic acid] | – | – | 2.8 |
| CCCCOCC(C)OCC(C)OCC(C)OCC(=O)O (centres unmarked) [Compound G, 2-{2-[2-(2-butoxy-1-methylethoxy)-1-methylethoxy]-1-methylethoxy}acetic acid] | – | – | 2.0 |
| CCOCCOCCOCC(=O)O [Compound C, 2-[2-(2-ethoxyethoxy)ethoxy]acetic acid] | – | – | 3.6 |
| CCOCC(=O)O [Compound A, 2-Ethoxyacetic acid] | – | – | 3.3 |
| CCCCOCC(=O)O [2-(n-Butoxy)acetic acid] | – | – | 1.0 |
